Experiment [1] deals with MCF7. The experiment can be described thus: Cytotoxicity against human MCF7 cells by MTT assay. Format: functional, cell-based. A general note: Tetrazolium assays rely on reduction of a dye to a coloured formazan, in cell work by metabolically active cells.
Experiment [2] concerns K562. The experiment in a line: Cytotoxicity against human K562 cells by MTT assay. Format: functional, cell-based.
The test system of experiment [3] is DU-145. The experiment can be described thus: Cytotoxicity against human DU145 cells by MTT assay. It is filed as functional, cell-based.
For experiment [4], the system named is HCT-15. The experiment in a line: Cytotoxicity against human HCT15 cells by MTT assay. It is filed as functional, cell-based.
Experiment [5] deals with T1, DNA topoisomerase 1 (Homo sapiens) (UniProt P11387).
T1 sequence (whole entry): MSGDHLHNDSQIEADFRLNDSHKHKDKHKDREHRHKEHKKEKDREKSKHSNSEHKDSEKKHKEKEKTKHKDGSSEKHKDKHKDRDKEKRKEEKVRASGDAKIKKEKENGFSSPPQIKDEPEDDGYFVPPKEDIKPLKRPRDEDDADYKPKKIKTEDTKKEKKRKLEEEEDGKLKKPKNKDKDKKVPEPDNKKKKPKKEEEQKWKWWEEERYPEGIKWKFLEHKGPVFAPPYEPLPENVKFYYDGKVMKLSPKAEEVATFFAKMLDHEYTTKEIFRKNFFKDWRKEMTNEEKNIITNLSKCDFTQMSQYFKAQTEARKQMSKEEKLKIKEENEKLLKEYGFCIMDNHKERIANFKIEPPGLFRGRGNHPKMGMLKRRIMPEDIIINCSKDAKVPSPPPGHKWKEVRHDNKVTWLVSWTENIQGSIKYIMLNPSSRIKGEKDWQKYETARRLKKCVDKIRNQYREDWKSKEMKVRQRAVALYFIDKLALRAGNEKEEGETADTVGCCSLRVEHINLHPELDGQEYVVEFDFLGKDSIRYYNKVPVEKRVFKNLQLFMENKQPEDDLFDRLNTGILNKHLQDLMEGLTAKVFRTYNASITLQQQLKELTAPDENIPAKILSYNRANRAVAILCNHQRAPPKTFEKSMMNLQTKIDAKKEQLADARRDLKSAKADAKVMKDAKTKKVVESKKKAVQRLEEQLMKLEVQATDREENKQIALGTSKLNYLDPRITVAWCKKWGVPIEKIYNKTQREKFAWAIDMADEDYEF
The experiment can be described thus: Inhibition of human topoisomerase 1-mediated relaxation of supercoiled pBR322 at 100 uM by agarose gel electrophoresis.

The target in experiment [6] is DNA topoisomerase 2-alpha (Homo sapiens) (UniProt P11388). The experiment in a line: Inhibition of human topoisomerase 2-mediated relaxation of supercoiled pBR322 at 100 uM by agarose gel electrophoresis.
For experiment [7] the target is unchanged. The experiment in a line: Inhibition of human topoisomerase 2-mediated relaxation of supercoiled pBR322 at 20 uM by agarose gel electrophoresis.

pIC50: −log10 of the molar value. Some results are limits rather than exact numbers.

DNA topoisomerase 2-alpha (Homo sapiens), sequence (P11388 whole entry): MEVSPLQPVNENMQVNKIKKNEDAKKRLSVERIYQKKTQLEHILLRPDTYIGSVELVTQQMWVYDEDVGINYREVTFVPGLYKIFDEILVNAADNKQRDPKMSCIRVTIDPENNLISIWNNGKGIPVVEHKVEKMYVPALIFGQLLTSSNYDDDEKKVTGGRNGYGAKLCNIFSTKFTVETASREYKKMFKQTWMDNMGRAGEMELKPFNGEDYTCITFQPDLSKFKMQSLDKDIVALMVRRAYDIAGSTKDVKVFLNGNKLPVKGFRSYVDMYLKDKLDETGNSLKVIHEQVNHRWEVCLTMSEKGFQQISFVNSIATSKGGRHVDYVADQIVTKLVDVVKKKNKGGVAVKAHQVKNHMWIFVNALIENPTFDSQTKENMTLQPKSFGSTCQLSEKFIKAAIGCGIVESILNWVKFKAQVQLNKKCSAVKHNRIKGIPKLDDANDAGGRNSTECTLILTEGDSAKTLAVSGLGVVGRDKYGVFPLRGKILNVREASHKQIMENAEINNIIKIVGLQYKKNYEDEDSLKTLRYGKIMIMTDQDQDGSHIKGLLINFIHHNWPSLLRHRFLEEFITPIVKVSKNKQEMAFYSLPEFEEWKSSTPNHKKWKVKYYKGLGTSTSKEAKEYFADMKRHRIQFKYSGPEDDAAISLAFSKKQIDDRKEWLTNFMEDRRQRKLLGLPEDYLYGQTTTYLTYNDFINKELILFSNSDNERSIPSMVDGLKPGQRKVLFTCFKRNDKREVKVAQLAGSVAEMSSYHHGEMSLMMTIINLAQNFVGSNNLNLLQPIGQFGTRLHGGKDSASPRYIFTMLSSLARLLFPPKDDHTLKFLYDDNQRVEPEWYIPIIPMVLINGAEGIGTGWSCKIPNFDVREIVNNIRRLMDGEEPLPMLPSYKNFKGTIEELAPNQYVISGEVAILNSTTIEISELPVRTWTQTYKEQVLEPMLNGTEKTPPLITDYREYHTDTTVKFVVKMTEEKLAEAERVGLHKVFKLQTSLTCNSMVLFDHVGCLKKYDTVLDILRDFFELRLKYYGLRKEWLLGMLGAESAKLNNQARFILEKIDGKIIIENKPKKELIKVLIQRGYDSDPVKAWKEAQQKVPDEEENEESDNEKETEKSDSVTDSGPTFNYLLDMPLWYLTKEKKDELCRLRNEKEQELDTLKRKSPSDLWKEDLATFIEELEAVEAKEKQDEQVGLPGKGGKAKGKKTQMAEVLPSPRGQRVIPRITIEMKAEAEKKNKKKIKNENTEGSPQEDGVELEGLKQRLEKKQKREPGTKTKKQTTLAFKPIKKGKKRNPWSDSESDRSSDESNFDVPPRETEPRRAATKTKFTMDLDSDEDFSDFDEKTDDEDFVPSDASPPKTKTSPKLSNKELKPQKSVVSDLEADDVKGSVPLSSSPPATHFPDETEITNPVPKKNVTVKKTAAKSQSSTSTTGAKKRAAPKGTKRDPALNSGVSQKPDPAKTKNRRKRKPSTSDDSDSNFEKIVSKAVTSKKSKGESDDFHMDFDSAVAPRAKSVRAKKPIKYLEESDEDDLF

What is called pIC50 is the negative decadic logarithm of the IC50, by convention in mol/L. Read a high pIC50 as a low IC50. For orientation: inhibition means the drop in the measured response relative to a control, in per cent. As to `COc1ccc(/C=C/C(=O)c2ccc(OCC3CS3)cc2OCC2CS2)cc1` (stereo not drawn), the pIC50 in experiment [1] was 6.31; in experiment [2], 5.12; in experiment [3], 5.97; in experiment [4] it was 6.64. Moreover, the results for the inhibition in experiment [5], in experiment [6] and in experiment [7] were 0%, 61% and 20.8%, respectively.
For `COc1ccc(C(=O)/C=C/c2ccc(OCC3CO3)cc2)cc1` (stereo not drawn), the pIC50 is 4.96 in experiment [1], 4.48 in experiment [2], 4.43 in experiment [3] and 4.52 in experiment [4]. Besides, the inhibition in experiment [5] stood at 0%; in experiment [6] it was 22%; in experiment [7], 15.2%.
`COc1ccc(/C=C/C(=O)c2ccc(OCC3CS3)cc2)cc1` (stereo not drawn): the pIC50 was 4.63 in experiment [1], below 4.30 in experiment [2], 4.71 in experiment [3] and 5.00 in experiment [4]. In addition, the inhibition in experiment [5] was 0%; in experiment [6], 31.6%; in experiment [7], 14.8%.
As to `COc1cc(OCC2CO2)ccc1/C=C/C(=O)c1ccc(OCC2CO2)cc1` (stereo not drawn), the pIC50 was 5.44 in experiment [1], 4.86 in experiment [2], below 4.30 in experiment [3] and 5.32 in experiment [4]. In addition, the inhibition in experiment [5] worked out at 0%; in experiment [6], 28.5%; in experiment [7], 14%.
As for `COc1ccc(/C=C/C(=O)c2ccc(OCC(O)CCl)cc2)cc1` (stereo not drawn), the pIC50 in experiment [1] was 4.73; in experiment [2], 4.79; in experiment [3] it was below 4.30; in experiment [4] it was 4.69. In addition, the figures for the inhibition in experiment [5], in experiment [6] and in experiment [7] were 0%, 34.9% and 16.3%, respectively.
For `COc1ccc(C(=O)/C=C/c2ccc(OCC(O)CCl)cc2)cc1` (stereo not drawn), the pIC50 in experiment [1] was 4.54; in experiment [2] it was 4.54; in experiment [3], below 4.30; in experiment [4], 4.69. Further, the values for the inhibition in experiment [5], in experiment [6] and in experiment [7] were 0%, 30.1% and 14%, respectively.
As to `CC[C@@]1(O)C(=O)OCc2c1cc1n(c2=O)Cc2cc3ccccc3nc2-1` [CAMPTOTHECIN], the negative logarithm of the IC50 (pIC50) in experiment [1] was 5.61; in experiment [2], 6.23; in experiment [3] it was 6.21; in experiment [4], 6.10.
Turning to `COc1ccc(/C=C/C(=O)c2ccc(OCC3CO3)cc2)cc1` (stereo not drawn), the pIC50 is 4.93 in experiment [1], 4.55 in experiment [2], 4.36 in experiment [3] and 4.57 in experiment [4]. Also, the inhibition in experiment [5] was found to be 0%; in experiment [6], 28.8%; in experiment [7] it was 17.6%.
In the case of `O=C(/C=C/c1ccc(OCC2CO2)cc1)c1ccc(OCC2CO2)cc1` (stereo not drawn), the pIC50 in experiment [1] is 5.41; in experiment [2] it was 5.14; in experiment [3], below 4.30; in experiment [4], 4.73. The inhibition in experiment [5] is 0%; in experiment [6], 33.5%; in experiment [7], 19.3%.
Consider `COc1cccc2c1C(=O)c1c(O)c3c(c(O)c1C2=O)C[C@@](O)(C(=O)CO)C[C@@H]3O[C@H]1C[C@H](N)[C@H](O)[C@H](C)O1` [DOXORUBICIN], for which the values for the pIC50 in experiment [2], in experiment [3] and in experiment [4] were 5.88, 5.76 and 5.90, respectively.
Regarding `COc1ccc(C(=O)/C=C/c2ccc(OCC3CS3)cc2)cc1` (stereo not drawn), the pIC50 in experiment [1] was 4.94; in experiment [2] it was 4.49; in experiment [3], below 4.30; in experiment [4], 4.55. The inhibition in experiment [5] stood at 0%; in experiment [6] it was 31.6%; in experiment [7], 15.5%.
Consider `COc1cc([C@@H]2c3cc4c(cc3[C@@H](O[C@@H]3O[C@@H]5CO[C@@H](C)O[C@H]5[C@H](O)[C@H]3O)[C@H]3COC(=O)[C@H]23)OCO4)cc(OC)c1O` [ETOPOSIDE], for which the pIC50 was 5.70 in experiment [1], 5.92 in experiment [2], 5.84 in experiment [3] and 5.69 in experiment [4]. Also, the figures for the inhibition in experiment [6] and in experiment [7] were 61.9% and 38%, respectively.
Turning to `O=C(/C=C/c1ccc(OCC2CS2)cc1)c1ccc(OCC2CS2)cc1` (stereo not drawn), the pIC50 in experiment [1] was 4.66; in experiment [2], 4.87; in experiment [3] it was below 4.30; in experiment [4], 4.91. In addition, the inhibition is 0% in experiment [5], 34.6% in experiment [6] and 18% in experiment [7].
